# From US20230051589A1, “COMPOUNDS AND COMPOSITIONS FOR TREATING CONDITIONS ASSOCIATED WITH NLRP ACTIVITY” (Novartis AG, priority 2018, published 2023)
# System: IL-1β production in PMA-differentiated THP-1 cells
# Test: IL-1β production in PMA-differentiated THP-1 cells stimulated with gramicidin (hTHP-1 assay, 2% fetal bovine serum; Procedures 1-3)
# Format: cell-based, human
# Details: Homo sapiens, THP-1, Table B1; hTHP-1 assay containing 2% fetal bovine serum, gramicidin stimulation, IL-1β readout; read-out: hTHP-1 IC50 (average)
# Method in brief: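 PMA-primed THP-1 cells (20 ng/ml PMA, 16-18 h) in RPMI with 2% FBS were pre-incubated with compounds for 1 h, from 100 μM downward in 3-fold steps (0.37% DMSO final), then stimulated with 5 μM gramicidin for 2 h. IL-1β in the supernatant was quantified by HTRF.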
row,IC50,SMILES
1,[…],"CC(C)(O)c1ncc(S(N)(=O)=NC(=O)Nc2c3c(cc4c2CCC4)CCC3)s1 (centres unmarked) [Example 4, N′-(1,2,3,5,6,7-hexahydro-s-indacen-4-ylcarbamoyl)-2-(2-hydroxypropan-2-yl)thiazole-5-sulfonimidamide]"

# Same assay, conditions: Homo sapiens, THP-1, Table B3; hTHP-1 assay containing 2% fetal bovine serum, gramicidin stimulation, IL-1β readout; read-out: hTHP-1 IC50
row,IC50,SMILES
1,40 to 200 nM,"CC(C)(CO)c1ncc(S(N)(=O)=NC(=O)Nc2c3c(c(C#N)c4c2CCC4)CCC3)s1 (centres unmarked) [Example 772, N′-((8-cyano-1,2,3,5,6,7-hexahydro-s-indacen-4-yl)carbamoyl)-2-(1-hydroxy-2-methylpropan-2-yl)thiazole-5-sulfonimidamide]"
2,40 to 200 nM,"CC(C)(O)c1sc(S(N)(=O)=NC(=O)Nc2c3c(cc4c2CCC4)CCC3)nc1CO (centres unmarked) [Example 767, N′-((1,2,3,5,6,7-hexahydro-s-indacen-4-yl)carbamoyl)-4-(hydroxymethyl)-5-(2-hydroxypropan-2-yl)thiazole-2-sulfonimidamide]"
3,8 to 40 nM,"C[C@@](O)(CO)c1ncc(S(N)(=O)=NC(=O)Nc2c3c(cc4c2CC4)CCC3)s1 (stereo partly drawn) [Example 742, 2-((R)-1,2-dihydroxypropan-2-yl)-N′-((2,4,5,6-tetrahydro-1H-cyclobuta[f]inden-3-yl)carbamoyl)thiazole-5-sulfonimidamide]"

# Same assay, conditions: Homo sapiens, THP-1, hTHP-1 assay containing 2% fetal bovine serum, Table B2, class symbols; read-out: IC50
row,IC50,SMILES
1,1000 to 5000 nM,"N[S@@](=O)(=NC(=O)Nc1c2c(cc3c1CCC3)CCC2)c1ccc(CNC2CCOCC2)cc1 [Example 703, (R)-N′-((1,2,3,5,6,7-hexahydro-s-indacen-4-yl)carbamoyl)-4-(((tetrahydro-2H-pyran-4-yl)-amino)methyl)benzenesulfonimidamide]"
2,40 to 200 nM,"CNCc1cc(F)c(S(N)(=O)=NC(=O)Nc2c3c(cc4c2CCC4)CCC3)s1 (centres unmarked) [Example 481, 3-Fluoro-N′-((1,2,3,5,6,7-hexahydro-s-indacen-4-yl)carbamoyl)-5-((methylamino)methyl)thiophene-2-sulfonimidamide]"
3,1000 to 5000 nM,"NS(=O)(=NC(=O)Nc1c2c(cc3c1CCC3)CCC2)c1ccc(C(F)F)nc1 (centres unmarked) [Example 485, 6-(Difluoromethyl)-N′-((1,2,3,5,6,7-hexahydro-s-indacen-4-yl)carbamoyl)pyridine-3-sulfonimidamide]"
4,1000 to 5000 nM,"CN(C)C(c1ccc(S(N)(=O)=NC(=O)Nc2c3c(cc4c2CCC4)CCC3)cc1)C(F)F (centres unmarked) [Example 474, 4-(1-(Dimethylamino)-2,2-difluoroethyl)-N-((1,2,3,5,6,7-hexahydro-s-indacen-4-yl)carbamoyl)benzenesulfonimidamide]"
5,200 to 1000 nM,"CN(C)C(c1ccc(S(N)(=O)=NC(=O)Nc2c3c(cc4c2CCC4)CCC3)cc1)C(F)(F)F (single isomer, unassigned) [Example 664]"
6,200 to 1000 nM,N[S@](=O)(=NC(=O)Nc1c2c(cc3c1CCC3)CCC2)c1ccc([C@H]2CCCN2)s1 [Compound 921b]
7,40 to 200 nM,"CC(C)(O)c1ncc(S(N)(=O)=NC(=O)Nc2c3c(c(Cl)c4c2CCC4)CCC3)s1 (centres unmarked) [Example 450, N′-((8-chloro-1,2,3,5,6,7-hexahydro-s-indacen-4-yl)carbamoyl)-2-(2-hydroxypropan-2-yl)thiazole-5-sulfonimidamide]"
8,1000 to 5000 nM,"CN1CCN(Cc2ccc([S@](N)(=O)=NC(=O)Nc3c4c(cc5c3CCC5)CCC4)cc2)CC1 [Example 707, (R)-N′-((1,2,3,5,6,7-hexahydro-s-indacen-4-yl)carbamoyl)-4-((4-methylpiperazin-1-yl)-methyl)benzenesulfonimidamide]"
9,200 to 1000 nM,CC(C)n1nc(S(N)(=O)=NC(=O)Nc2c3c(cc4c2C(=O)CC4)CCC3)cc1C(C)(C)O (centres unmarked) [Compound 908]

# Same assay, conditions: Homo sapiens, THP-1, hTHP-1 assay containing 2% fetal bovine serum, Table B2, given as bound; read-out: IC50
row,IC50,SMILES
1,> 30000 nM,"COc1cc(CN(C)C)ccc1S(N)(=O)=NC(=O)Nc1c2c(cc3c1CCC3)CCC2 (single isomer, unassigned) [Example 607, (S) or (R)-4-((dimethylamino)methyl)-N′-((1,2,3,5,6,7-hexahydro-s-indacen-4-yl)carbamoyl)-2-methoxybenzene-sulfonimidamide]"

# Same assay, conditions: Table B1; hTHP-1 assay containing 2% fetal bovine serum, gramicidin stimulation, IL-1β readout; read-out: hTHP-1 IC50 (average)
row,IC50,SMILES
1,40 to 200 nM,"CC(C)(O)c1ncc(S(N)(=O)=NC(=O)Nc2c3c(cc4c2C(=O)CC4)CCC3)s1 (single isomer, unassigned) [Example 364, (R) or (S)-2-(2-Hydroxy-propan-2-yl)-N′-((3-oxo-1,2,3,5,6,7-hexahydro-s-indacen-4-yl)carbamoyl)-thiazole-5-sulfonimidamide]"
2,1000 to 5000 nM,"COC1CN(Cc2ccc(S(N)(=O)=NC(=O)Nc3c4c(cc5c3CCC5)CCC4)cc2)C1 (single isomer, unassigned) [Example 379, (R) or (S)-N′-((1,2,3,5,6,7-hexahydro-s-indacen-4-yl)carbamoyl)-4-((3-methoxyazelidin-1-yl)-methyl)benzenesulfonimid-amide]"

# Same assay, conditions: Table B3; hTHP-1 assay containing 2% fetal bovine serum, gramicidin stimulation, IL-1β readout; read-out: hTHP-1 IC50
row,IC50,SMILES
1,200 to 1000 nM,"CN(C)CC(C)(C)c1ccc(S(N)(=O)=NC(=O)Nc2c3c(cc4c2CCC4)CCC3)cc1 (single isomer, unassigned) [Example 809, (R) or (S)-4-(1-(dimethylamino)-2-methylpropan-2-yl)-N′-((1,2,3,5,6,7-hexahydro-s-indacen-4-yl)carbamoyl)benzenesulfonimidamide]"
2,1000 to 5000 nM,"CN1CCCC(c2ccc(S(N)(=O)=NC(=O)Nc3c4c(cc5c3CC5)CCC4)c(F)c2)C1 (single isomer, unassigned) [Example 859, (S, R) or (R, R)-2-fluoro-4-(1-methylpiperidin-3-yl)-N′-((2,4,5,6-tetrahydro-1H-cyclobuta[f]inden-3-yl)carbamoyl)benzenesulfonimidamide]"
3,200 to 1000 nM,"CC(C)n1nc(S(N)(=O)=NC(=O)Nc2c3c(cc4c2C(=O)CC4)CCC3)cc1C(C)(C)O (single isomer, unassigned) [Example 805, (R) or (S)-5-(2-hydroxypropan-2-yl)-1-isopropyl-N′-((3-oxo-1,2,3,5,6,7-hexahydro-s-indacen-4-yl)carbamoyl)-1H-pyrazole-3-sulfonimidamide]"
4,200 to 1000 nM,"CC(O)(CO)c1nc(CO)c(S(N)(=O)=NC(=O)Nc2c3c(cc4c2CCC4)CCC3)s1 (stereo in doubt) [Example 755, 2-((S)-1,2-dihydroxypropan-2-yl)-N′-((1,2,3,5,6,7-hexahydro-s-indacen-4-yl)carbamoyl)-4-(hydroxymethyl)thiazole-5-sulfonimidamide]"
5,5000 to 30000 nM,"NS(=O)(=NC(=O)Nc1c2c(cc3c1CCC3)CCC2)c1ccc(C2CCN2)cc1 (single isomer, unassigned) [Example 865, (S, S) or (R, S)-4-(azetidin-2-yl)-N′-((1,2,3,5,6,7-hexahydro-s-indacen-4-yl)carbamoyl)benzenesulfonimidamide]"
6,1000 to 5000 nM,"CC(C)(CO)c1ncc(S(N)(=O)=NC(=O)Nc2c3c(c(C#N)c4c2CCC4)CCC3)s1 (single isomer, unassigned) [Example 829, (S) or (R)-N′-((8-cyano-1,2,3,5,6,7-hexahydro-s-indacen-4-yl)carbamoyl)-2-(1-hydroxy-2-methylpropan-2-yl)thiazole-5-sulfonimidamide]"
7,40 to 200 nM,"CNCc1csc(S(N)(=O)=NC(=O)Nc2c3c(cc4c2CC4)CCC3)c1F (single isomer, unassigned) [Example 870, (R) or (S) -3-fluoro-4-((methylamino)methyl)-N′-((2,4,5,6-tetrahydro-1H-cyclobuta[f]inden-3-yl)carbamoyl)thiophene-2-sulfonimidamide]"

# Same assay, conditions: hTHP-1 assay containing 2% fetal bovine serum, Table B2, class symbols; read-out: IC50
row,IC50,SMILES
1,40 to 200 nM,"CC(O)(CO)c1cc(F)c(S(N)(=O)=NC(=O)Nc2c3c(c(C#N)c4c2CCC4)CCC3)s1 (single isomer, unassigned) [Example 629, (S,R) or (R,R)-N′-((8-cyano-1,2,3,5,6,7-hexahydro-s-indacen-4-yl)carbamoyl)-5-(1,2-dihydroxypropan-2-yl)-3-fluorothiophene-2-sulfonimidamide]"
2,8 to 40 nM,"CC(O)(CO)c1cc(F)c(S(N)(=O)=NC(=O)Nc2c3c(c(C#N)c4c2CCC4)CCC3)s1 (single isomer, unassigned) [Example 630, (R,R) or (S,R)-N′-((8-cyano-1,2,3,5,6,7-hexahydro-s-indacen-4-yl)carbamoyl)-5-(1,2-dihydroxypropan-2-yl)-3-fluorothiophene-2-sulfonimidamide]"
3,5000 to 30000 nM,"CC(C)(O)c1cncc(S(N)(=O)=NC(=O)Nc2c3c(c(C#N)c4c2CCC4)CCC3)c1 (single isomer, unassigned) [Example 523, (S) or (R)-N′-((8-cyano-1,2,3,5,6,7-hexahydro-s-indacen-4-yl)carbamoyl)-5-(2-hydroxypropan-2-yl)pyridine-3-sulfonimidamide]"
4,200 to 1000 nM,"CC(C)(O)c1cc(S(N)(=O)=NC(=O)Nc2c3c(c(C#N)c4c2CCC4)CCC3)nn1-c1ccccc1 (single isomer, unassigned) [Example 575, (R) or (S)-N′-((8-cyano-1,2,3,5,6,7-hexahydro-s-indacen-4-yl)carbamoyl)-5-(2-hydroxypropan-2-yl)-1-pheny-1H-pyrazole-3-sulfonimidamide]"
5,200 to 1000 nM,"NS(=O)(=NC(=O)Nc1c2c(cc3c1CCC3)CCC2)c1ccc(C2CCNC2)cc1F (single isomer, unassigned) [Example 625, (S,R) or (R,R)-2-fluoro-N′-((1,2,3,5,6,7-hexahydro-s-indacen-4-yl)carbamoyl)-4-pyrrolidin-3-yl) benzenesulfonimidamide]"
6,40 to 200 nM,"CC(C)(O)c1csc([S@](N)(=O)=NC(=O)Nc2c3c(cc4c2C(=O)CC4)CCC3)c1 (single isomer, unassigned) [Example 530, (R) or (S)-4-(2-hydroxypropan-2-yl)-N′-((3-oxo-1,2,3,5,6,7-hexahydro-s-indacen-4-yl)carbamoyl) (thiophene-2-sulfonimidamide]"
